pIC50: −log10 of the molar value.
Tested on: 276233-004-R-J1-PDC complex spheroid viability
Assay: Anticancer human tumor 276233-004-R-J1-PDC patient-derived colon adenocarcinoma cell line growth inhibition [GQUAD]
Settings: for pIC50: curve of first compound; for viability, T/C: stronger effect = lower value
How it was run: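 Viability of tumor cells grown as complex spheroids with endothelial and stromal cells, exposed to drug combinations. Top concentration at or near clinical Cmax (else 10 microM), diluted in half-log increments.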

[1] = second compound 0.0316 µM, first compound 0.000999 µM
[2] = second compound 0.0316 µM, first compound 0.00316 µM
[3] = second compound 0.0316 µM, first compound 0.00999 µM
[4] = second compound 0.0316 µM, first compound 0.0316 µM
[5] = second compound 0.0316 µM, first compound 0.0999 µM
[6] = second compound 0.0316 µM, first compound 0.316 µM
[7] = second compound 0.1 µM, first compound 0.000999 µM
[8] = second compound 0.1 µM, first compound 0.00316 µM
[9] = second compound 0.1 µM, first compound 0.00999 µM
[10] = second compound 0.1 µM, first compound 0.0316 µM
[11] = second compound 0.1 µM, first compound 0.0999 µM
[12] = second compound 0.1 µM, first compound 0.316 µM
[13] = second compound 0.316 µM, first compound 0.000999 µM
[14] = second compound 0.316 µM, first compound 0.00316 µM
[15] = second compound 0.316 µM, first compound 0.00999 µM
[16] = second compound 0.316 µM, first compound 0.0316 µM
[17] = second compound 0.316 µM, first compound 0.0999 µM
[18] = second compound 0.316 µM, first compound 0.316 µM
[19] = second compound 1 µM, first compound 0.000999 µM
[20] = second compound 1 µM, first compound 0.00316 µM
[21] = second compound 1 µM, first compound 0.00999 µM
[22] = second compound 1 µM, first compound 0.0316 µM
[23] = second compound 1 µM, first compound 0.0999 µM
[24] = second compound 1 µM, first compound 0.316 µM
[25] = second compound 3.16 µM, first compound 0.000999 µM
[26] = second compound 3.16 µM, first compound 0.00316 µM
[27] = second compound 3.16 µM, first compound 0.00999 µM
[28] = second compound 3.16 µM, first compound 0.0316 µM
[29] = second compound 3.16 µM, first compound 0.0999 µM
[30] = second compound 3.16 µM, first compound 0.316 µM
[31] = second compound 10 µM, first compound 0.000999 µM
[32] = second compound 10 µM, first compound 0.00316 µM
[33] = second compound 10 µM, first compound 0.00999 µM
[34] = second compound 10 µM, first compound 0.0316 µM
[35] = second compound 10 µM, first compound 0.0999 µM
[36] = second compound 10 µM, first compound 0.316 µM
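Further: spheroids exposed to drugs for seven days.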
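Wherever viability, T/C is given: 100% = DMSO vehicle control viability.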

CCc1c2c(nc3ccc(O)cc13)-c1cc3c(c(=O)n1C2)COC(=O)[C@]3(O)CC + Cc1[nH]c2ccc(F)cc2c1-c1nc2c3cccnc3c3ncccc3c2[nH]1
pIC50 (second compound 0.0316 µM): < 6.50
pIC50 (second compound 0.1 µM): < 6.50
pIC50 (second compound 0.316 µM): < 6.50
pIC50 (second compound 1 µM): < 6.50
pIC50 (second compound 3.16 µM): < 6.50
pIC50 (second compound 10 µM): > 9.00
viability, T/C [1]: 104%
viability, T/C [2]: 72.7%
viability, T/C [3]: 85.2%
viability, T/C [4]: 103%
viability, T/C [5]: 106%
viability, T/C [6]: 94.2%
viability, T/C [7]: 76.3%
viability, T/C [8]: 89.8%
viability, T/C [9]: 79.5%
viability, T/C [10]: 97.5%
viability, T/C [11]: 111%
viability, T/C [12]: 90.4%
viability, T/C [13]: 78.8%
viability, T/C [14]: 82.6%
viability, T/C [15]: 78.1%
viability, T/C [16]: 94.1%
viability, T/C [17]: 97.2%
viability, T/C [18]: 88.1%
viability, T/C [19]: 62.8%
viability, T/C [20]: 82.7%
viability, T/C [21]: 80.5%
viability, T/C [22]: 81.6%
viability, T/C [23]: 90.1%
viability, T/C [24]: 73.5%
viability, T/C [25]: 58.7%
viability, T/C [26]: 57.3%
viability, T/C [27]: 54%
viability, T/C [28]: 62.3%
viability, T/C [29]: 67.3%
viability, T/C [30]: 67.3%
viability, T/C [31]: 39.8%
viability, T/C [32]: 41.1%
viability, T/C [33]: 56.8%
viability, T/C [34]: 62.2%
viability, T/C [35]: 55.4%
viability, T/C [36]: 54.8%

CCc1c2c(nc3ccc(O)cc13)-c1cc3c(c(=O)n1C2)COC(=O)[C@]3(O)CC + Cc1cnc(CNC(=O)c2c(=O)c3ccc(N4CCCN(C)CC4)nc3n3c2sc2ccccc23)cn1
pIC50 (second compound 0.0316 µM): < 6.50
pIC50 (second compound 0.1 µM): < 6.50
pIC50 (second compound 0.316 µM): < 6.50
pIC50 (second compound 1 µM): < 6.50
pIC50 (second compound 3.16 µM): < 6.50
pIC50 (second compound 10 µM): < 6.50
viability, T/C [1]: 96.8%
viability, T/C [2]: 92.2%
viability, T/C [3]: 90.9%
viability, T/C [4]: 90%
viability, T/C [5]: 99.4%
viability, T/C [6]: 103%
viability, T/C [7]: 97.9%
viability, T/C [8]: 90.4%
viability, T/C [9]: 90.6%
viability, T/C [10]: 110%
viability, T/C [11]: 94.2%
viability, T/C [12]: 89.2%
viability, T/C [13]: 91.6%
viability, T/C [14]: 103%
viability, T/C [15]: 105%
viability, T/C [16]: 84.8%
viability, T/C [17]: 85.8%
viability, T/C [18]: 79.4%
viability, T/C [19]: 85.4%
viability, T/C [20]: 74.7%
viability, T/C [21]: 84.7%
viability, T/C [22]: 77%
viability, T/C [23]: 83.2%
viability, T/C [24]: 76.2%
viability, T/C [25]: 81.6%
viability, T/C [26]: 96.1%
viability, T/C [27]: 80.2%
viability, T/C [28]: 67.4%
viability, T/C [29]: 85.1%
viability, T/C [30]: 71.5%
viability, T/C [31]: 72.4%
viability, T/C [32]: 88.4%
viability, T/C [33]: 75.5%
viability, T/C [34]: 65.5%
viability, T/C [35]: 77.8%
viability, T/C [36]: 62%

COc1cccc2c1C(=O)c1c(O)c3c(c(O)c1C2=O)CC(O)(C(=O)CO)CC3OC1CC(N)C(O)C(C)O1 (stereo not drawn) + Cc1cnc(CNC(=O)c2c(=O)c3ccc(N4CCCN(C)CC4)nc3n3c2sc2ccccc23)cn1
pIC50 (second compound 0.0316 µM): 5.01
pIC50 (second compound 0.1 µM): 5.17
pIC50 (second compound 0.316 µM): 5.45
pIC50 (second compound 1 µM): 5.63
pIC50 (second compound 3.16 µM): 5.67
pIC50 (second compound 10 µM): 5.69
viability, T/C [4]: 81.5%
viability, T/C (second compound 0.0316 µM, first compound 0.1 µM): 87.3%
viability, T/C [6]: 86%
viability, T/C (second compound 0.0316 µM, first compound 1 µM): 67.1%
viability, T/C (second compound 0.0316 µM, first compound 3.16 µM): 79.6%
viability, T/C (second compound 0.0316 µM, first compound 10 µM): 48.6%
viability, T/C [10]: 79%
viability, T/C (second compound 0.1 µM, first compound 0.1 µM): 94.9%
viability, T/C [12]: 72.2%
viability, T/C (second compound 0.1 µM, first compound 1 µM): 87.9%
viability, T/C (second compound 0.1 µM, first compound 3.16 µM): 66.3%
viability, T/C (second compound 0.1 µM, first compound 10 µM): 41.9%
viability, T/C [16]: 80.4%
viability, T/C (second compound 0.316 µM, first compound 0.1 µM): 92.3%
viability, T/C [18]: 87.2%
viability, T/C (second compound 0.316 µM, first compound 1 µM): 78.3%
viability, T/C (second compound 0.316 µM, first compound 3.16 µM): 51.8%
viability, T/C (second compound 0.316 µM, first compound 10 µM): 35%
viability, T/C [22]: 78%
viability, T/C (second compound 1 µM, first compound 0.1 µM): 95.8%
viability, T/C [24]: 83.1%
viability, T/C (second compound 1 µM, first compound 1 µM): 73%
viability, T/C (second compound 1 µM, first compound 3.16 µM): 41.8%
viability, T/C (second compound 1 µM, first compound 10 µM): 24.4%
viability, T/C [28]: 78.1%
viability, T/C (second compound 3.16 µM, first compound 0.1 µM): 78.8%
viability, T/C [30]: 77.4%
viability, T/C (second compound 3.16 µM, first compound 1 µM): 60.4%
viability, T/C (second compound 3.16 µM, first compound 3.16 µM): 44.5%
viability, T/C (second compound 3.16 µM, first compound 10 µM): 13%
viability, T/C [34]: 73.2%
viability, T/C (second compound 10 µM, first compound 0.1 µM): 60.6%
viability, T/C [36]: 64.5%
viability, T/C (second compound 10 µM, first compound 1 µM): 69%
viability, T/C (second compound 10 µM, first compound 3.16 µM): 39.4%
viability, T/C (second compound 10 µM, first compound 10 µM): 13.5%

CC[C@@]1(O)C(=O)OCc2c1cc1n(c2=O)Cc2cc3c(CN(C)C)c(O)ccc3nc2-1 + Cc1cnc(CNC(=O)c2c(=O)c3ccc(N4CCCN(C)CC4)nc3n3c2sc2ccccc23)cn1
pIC50 (second compound 0.0316 µM): < 6.50
pIC50 (second compound 0.1 µM): < 6.50
pIC50 (second compound 0.316 µM): < 6.50
pIC50 (second compound 1 µM): < 6.50
pIC50 (second compound 3.16 µM): < 6.50
pIC50 (second compound 10 µM): < 6.50
viability, T/C [1]: 88.1%
viability, T/C [2]: 94.5%
viability, T/C [3]: 87.9%
viability, T/C [4]: 80%
viability, T/C [5]: 98.7%
viability, T/C [6]: 82.5%
viability, T/C [7]: 93.3%
viability, T/C [8]: 101%
viability, T/C [9]: 107%
viability, T/C [10]: 83.7%
viability, T/C [11]: 87%
viability, T/C [12]: 76%
viability, T/C [13]: 83.9%
viability, T/C [14]: 90.8%
viability, T/C [15]: 106%
viability, T/C [16]: 84.4%
viability, T/C [17]: 87.7%
viability, T/C [18]: 92.7%
viability, T/C [19]: 81%
viability, T/C [20]: 93.9%
viability, T/C [21]: 87.1%
viability, T/C [22]: 80.5%
viability, T/C [23]: 88.2%
viability, T/C [24]: 107%
viability, T/C [25]: 81.9%
viability, T/C [26]: 84%
viability, T/C [27]: 80.6%
viability, T/C [28]: 87.2%
viability, T/C [29]: 82.3%
viability, T/C [30]: 80.8%
viability, T/C [31]: 73.2%
viability, T/C [32]: 67.9%
viability, T/C [33]: 70.2%
viability, T/C [34]: 83.6%
viability, T/C [35]: 70%
viability, T/C [36]: 89.6%

Reference: PubChem BioAssay AID2060496 (Molecular Pharmacology Branch, DTP, NCI, 2025)
